Laboratory results as given in ChEMBL document CHEMBL4477268, “2-(4-Fluorophenyl)-quinazolin-4(3H)-one as a novel tyrosinase inhibitor: Synthesis, inhibitory activity, and mechanism” (Bioorg Med Chem, 2016).
pIC50, pKi: −log10 of the molar value. Activity calls are given as the source filed them. The calls are words filed in the database; no cut-off is given here.

Columns and labels:
[1] = target: T1, Tyrosinase (Agaricus bisporus) (UniProt O42713); assay: Binding affinity to mushroom tyrosinase assessed as reduction in fluorescence intensity at 0 to 10 uM by fluorescence-spectrophotometric analysis; design: scale not given: the % may be the effect or the level left
T1 sequence (whole entry): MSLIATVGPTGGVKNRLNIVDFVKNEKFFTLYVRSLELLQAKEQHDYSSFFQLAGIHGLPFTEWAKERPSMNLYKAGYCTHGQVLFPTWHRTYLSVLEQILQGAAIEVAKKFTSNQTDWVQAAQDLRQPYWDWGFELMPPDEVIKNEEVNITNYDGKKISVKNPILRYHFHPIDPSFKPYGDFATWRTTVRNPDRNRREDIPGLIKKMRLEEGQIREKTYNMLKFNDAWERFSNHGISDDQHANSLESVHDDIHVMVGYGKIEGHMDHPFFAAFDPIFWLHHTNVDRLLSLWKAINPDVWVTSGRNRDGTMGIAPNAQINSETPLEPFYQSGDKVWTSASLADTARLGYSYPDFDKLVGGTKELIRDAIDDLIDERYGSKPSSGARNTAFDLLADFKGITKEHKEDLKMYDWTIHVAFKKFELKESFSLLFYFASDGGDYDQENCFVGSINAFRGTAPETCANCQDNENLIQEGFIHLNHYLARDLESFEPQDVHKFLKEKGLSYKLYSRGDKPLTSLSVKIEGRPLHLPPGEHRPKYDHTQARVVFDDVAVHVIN

[2] = target: T2, Tyrosinase (Agaricus bisporus, UniProt O42713); assay: Mixed-type reversible inhibition of diphenolase activity of mushroom tyrosinase using L-DOPA as substrate by Lineweaver-Burk double reciprocal-plot analysis
T2 sequence (O42713 whole entry): T1 sequence (whole entry)

[3] = target: T2, Tyrosinase; assay: (§1) Inhibition of diphenolase activity of mushroom tyrosinase using L-DOPA as substrate by spectrophotometric analysis
[4] = target: T1, Tyrosinase (Agaricus bisporus); assay: as §1
[5] = target: T1, Tyrosinase (Agaricus bisporus); assay: Binding affinity to mushroom tyrosinase assessed as reduction in fluorescence intensity by spectrophotometric analysis
[6] = Binding affinity to L-DOPA assessed as decrease in maximum fluorescence emission intensity of L-DOPA at 48 uM by spectrophotometric analysis; design: scale not given: the % may be the effect or the level left
[7] = target: T1, Tyrosinase (Agaricus bisporus); assay: Binding affinity to mushroom tyrosinase assessed as induction of red shift in spectra by fluorescence-spectrophotometric analysis
[8] = Binding affinity to tyrosine assessed as decrease in maximum fluorescence emission intensity of tyrosine at 48 uM by spectrophotometric analysis; design: scale not given: the % may be the effect or the level left
[9] = target: T2, Tyrosinase; assay: Mixed-type reversible inhibition of diphenolase activity of mushroom tyrosinase assessed as enzyme-substrate complex using L-DOPA as substrate by Lineweaver-Burk double reciprocal plot analysis

Activity [1]: 77.2%
pKi [2]: 3.15
pIC50 [3]: 3.92
inhibition [4]: Dose-dependent effect
Activity [5]: Dose-dependent effect
Activity [6]: 44.8%
Activity [7]: Active
Activity [8]: 53.1%
pKi [9]: 3.65
SMILES: Oc1nc(-c2ccc(F)cc2)nc2ccccc12
